Test results: article PMC8624998, “Synthesis and Antiproliferative Evaluation of 3-Chloroazetidin-2-ones with Antimitotic Activity: Heterocyclic Bridged Analogues of Combretastatin A-4” (Pharmaceuticals, 2021)

What was measured:
[1] = test system: microtubule network of MCF-7 cells; test: Immunofluorescence (confocal) of microtubule network; type: cell-based, human; settings: MCF-7, 16 h; 10n 0.05, 0.1, 0.5 μM; CA-4 10 nM; paclitaxel 1 μM
Procedure: Subsequently, the effect of the representative compound 10n on the organisation of microtubule cytoskeleton of MCF-7 cells was also determined by confocal microscopy using an anti-tubulin antibody (Figure 8). […] The MCF-7 cell nuclei (stained blue) were also clearly observed (Figure 8A). […] The treatment of MCF-7 breast cancer cells with CA-4 tubulin-targeting agents has been reported to result in the formation of multiple micronuclei and mitotic catastrophes.
Confocal microscopy was used to study the effects on MCF-7 cytoskeleton following treatment with compound 10n following the protocols previously reported. For each experiment, all images were collected on the same day using identical parameters. MCF-7 cells were seeded (1 × 10^5 cells/mL) on eight chamber glass slides. Cells were either untreated or treated with vehicle (1% ethanol (v/v)), CA-4 (10 nM), Paclitaxel (1 μM) and β-lactam compound 10n at 50 nM, 100 nM and 500 nM concentrations for 16 h. The cells were then gently washed in PBS and then fixed for 30 min with 100% ice-cold MeOH. Cells were washed three times in PBS for 10 min and then permeabilised in 0.5% Triton X-100. The cells were subsequently washed in PBS containing 0.1% Tween (PBST), and then blocked in bovine serum albumin (5%) diluted in PBST. Cells were then incubated with a mouse monoclonal anti-α-tubulin−FITC antibody (clone DM1A) (1:200) for 2 h at 20 °C. Following washes in PBST, cells were incubated with Alexa Fluor 488 dye (1:500) for 1 h at 20 °C. Following further washes in PBST, the cells were mounted in Ultra Cruz Mounting Media, which contained 4,6-diamino-2-phenolindol dihydrochloride (DAPI). The images were photographed using Leica SP8 confocal microscopy with the Leica application suite X software program. Experiments were performed on three independent occasions.
Figure 8 Compound 10n depolymerises the microtubule network of MCF-7 breast cancer cells. Cells were treated with (A) vehicle control ([…]), (B) CA-4 (10 nM), (C) paclitaxel (1 μM) and compound 10n, (D) (50 nM), (E) (100 nM) and (F) (500 nM) for 16 h. […]

Mcl-1 = test: Western blot analysis; type: cell-based, human; settings: MCF-7, 0.05, 0.1 and 0.5 μM, 48 or 72 h
From the text: (§1) The apoptosis regulating proteins Bcl-2 and Mcl-1 were next investigated. The anti-apoptotic or pro-survival Bcl-2 protein is also a member of the Bcl-2 family. It prevents the release of a pro-apoptotic AIF (apoptosis inducing factor) and cytochrome c from the mitochondria into the cytoplasm and prevents apoptosis by sequestering caspases (apoptosis promoters). […] (Figure 9). Mcl-1 protein (an induced myeloid leukaemia cell differentiation protein) is another key anti-apoptotic member of the Bcl-2 family and is localised in the mitochondrial outer membrane. It binds and sequesters the pro-apoptotic Bax/Bak proteins and, thus, prevents the release of cytochrome c. Overexpression of the anti-apoptotic factors Mcl-1, Bcl-2 and Bcl-xL in acute myeloid leukaemia and acute lymphocytic leukaemia may be associated dysregulation of apoptosis. […] (Figure 10). Apoptosis can be triggered by a reduction in the expression levels of Mcl-1 and Bcl-2 (e.g., by drug treatment). […]
(§2) MCF-7 cells were seeded at a density of 1 × 10^5 cells/flask in T25 flasks. […] Equal quantities of protein (as determined using a BCA assay) were resolved by SDS-PAGE (12%) followed by transfer to PVDF membranes. […] Proteins were detected using enhanced chemiluminescent Western blot detection (Clarity Western ECL substrate) (Bio Rad) on the ChemiDoc MP System (Bio Rad). […]

Bcl-2 = test: Western blot analysis; type: cell-based, human; settings: MCF-7, 0.05, 0.1 and 0.5 μM, 48 or 72 h
From the text: as §1, §2

OVCAR-8 = test: NCI-60 5 dose screen, Ovarian Cancer; type: cell-based; settings: Homo sapiens
K-562 = test: NCI-60 5 dose screen, leukaemia; type: cell-based; settings: Homo sapiens, K562
CCRF-CEM = test: NCI-60 5 dose screen, leukaemia; type: cell-based; settings: Homo sapiens

Structure (SMILES) | effect on microtubule network [1] | level of anti-apoptotic protein Mcl-1 (Mcl-1) | level of anti-apoptotic protein Bcl-2 (Bcl-2) | GI50 (OVCAR-8) [nM] | GI50 (K-562) [nM] | GI50 (CCRF-CEM) [nM]
COc1ccc(/C=C\c2cc(OC)c(OC)c(OC)c2)cc1O [CA-4, Combretastatin A-4] | extensive depolymerisation of tubulin |  |  |  |  | 
COc1ccc(C2C(Cl)C(=O)N2c2cc(OC)c(OC)c(OC)c2)cc1O (stereo not shown) [Compound 10n, 3-Chloro-4-(3-hydroxy-4-methoxy-phenyl)-1-(3,4,5-trimethoxyphenyl)azetidin-2-one] | disorganised microtubule network | downregulated in a dose-dependent manner | downregulated in a dose-dependent manner |  |  | 
CCSc1ccc(C2C(Br)C(=O)N2c2cc(OC)c(OC)c(OC)c2)cc1 (stereo not shown) [Compound 16d, 3-Bromo-4-(4-(ethylthio)phenyl)-1-(3,4,5-trimethoxyphenyl)azetidin-2-one] |  |  |  | 403 | 54.5 | 278
